Laboratory results taken from patent US20100234220A1, “Oxooxetanes as Fungicidal Agents” (Bayer CropScience AG, priority 2006, published 2010).

Key:
[1] = logP determination by HPLC (gradient method, 0.08% HCO2H)
Venturia inaequalis = assay: Venturia test (apple)/protective; format: in vivo; settings: protective, 100 ppm, evaluation 10 days after inoculation
Description: Venturia Test (Apple)/Protective [table] To produce a suitable preparation of active compound, 1 part by weight of active compound is mixed with the stated amounts of solvents and emulsifier, and the concentrate is diluted with water to the desired concentration. To test for protective activity, young plants are sprayed with the preparation of active compound at the stated application rate. After the spray coating has dried on, the plants are inoculated with an aqueous conidia suspension of the apple scab pathogen Venturia inaequalis and then remain in an incubation cabin at about 20° C. and 100% relative atmospheric humidity for 1 day. The plants are then placed in a greenhouse at about 21° C. and a relative atmospheric humidity of about 90%.

| SMILES | chromatographic logP [1] | efficacy (Venturia inaequalis) [%] |
| --- | --- | --- |
| CC[C@H](C)[C@@H]1C(=O)O[C@H]1C(=O)Nc1cc(OC)c(OC)c(OC)c1 [Example 3, (2R,3S)-3-[(1S)-1-methylpropyl]-4-oxo-N-(3,4,5-trimethoxyphenyl)oxetane-2-carboxamide] | 2.5 |  |
| CC[C@H](C)[C@@H]1C(=O)O[C@H]1C(=O)NCc1ccc(Cl)cc1 [Example 2, (2R,3S)—N-(4-chlorobenzyl)-3-[(1S)-1-methylpropyl]-4-oxooxetane-2-carboxamide] | 3.04 |  |
| CC[C@H](C)[C@@H]1C(=O)O[C@H]1C(=O)NCc1cc(OC)cc(OC)c1 [Example 1, (3S)-(1S-Methylpropyl)-(2R)-(3,5-dimethoxybenzylaminocarbonyl)-4-oxooxetane] |  | ≥ 70 |
